{"source": "patent US10144929B2", "about": "“Polypeptide inhibitors of Smad3 polypeptide activities” (Mayo Foundation for Medical Education and Research, priority 2016, dated 2018)", "key": {"AKR-2B cells": {"system": "AKR-2B cells", "assay": "Soft agar colony formation (anchorage-independent growth, AIG)", "format": "cell-based", "settings": "1.5 μM polypeptide, TGFβ 10 ng/mL, seven days", "method": "FIGS. 2A-C. TAT-SH3 inhibits Smad3-dependent responses. (A) AKR-2B cells were transiently transfected with a Smad3 (3TP), Smad2 (ARE), or Smad1/5/8 (BRE) reporter construct, and luciferase activity determined following 12 hours incubation in the absence (−) or presence (+) of the indicated ligand (5 ng/mL TGFβ; 10 ng/mL BMP4) or TAT-SNX9(SH3) fusion polypeptide (1.5 μM). Data represent the mean+/−SEM of three experiments. (B) RT-PCR analysis of Smad3 (PAI-1 and CTGF) and Smad2 (MMP2) responsive gene following 24 hour treatment of AKR-2B cells with the indicated concentration of TAT-SNX9(SH3) fusion polypeptide or 5 ng/mL TGFβ. Loading was verified by GAPDH expression. (C) Soft agar colony formation was performed following seven days growth in the presence (+) or absence (−) of TGFβ (10 ng/mL) or the indicated TAT-SNX9(SH3) fusion polypeptide (1.5 μM). […]\nFIGS. 3A-E. Inhibition of Smad3 signaling by a defined region of the SH3 domain in SNX9. […] (B) Nuclear fractions were prepared and assessed as in FIG. 1B following transduction with the indicated TAT-SNX9(SH3) fusion polypeptide (Left). Quantitation (mean+/−sd) of nuclear pSmad2 or pSmad3 from 2 experiments (Right). (C) Immunofluorescence of nuclear Smad3 was determined as in FIG. 1C from 30 cells in each of two experiments in the absence (−) or presence (+) of 5 ng/mL TGFβ and the indicated TAT-SNX9(SH3) fusion polypeptide (1.5 μM). […]"}, "[1]": {"system": "Normal human lung fibroblasts (NHLF) or lung fibroblasts from idiopathic pulmonary fibrosis (IPF) patients", "assay": "Profibrotic responses in human lung fibroblasts (F-actin, Western, qPCR)", "format": "cell-based", "settings": "TGFβ 5 ng/mL 24 hours", "method": "FIGS. 11A-C. TAT-SH3-2 inhibits profibrotic responses in human lung fibroblasts. (A) Normal human lung fibroblasts (NHLF) or lung fibroblasts from idiopathic pulmonary fibrosis (IPF) patients were transduced with the indicated TAT polypeptide. TGFβ (5 ng/mL) or SB431542 (10 μM) was then added for an additional 24 hours. Images were obtained on a LSM510 confocal microscope following F-actin labeling with phalloidin-TRITC and DAPI nuclei staining. Scale bar: 10 μm. (B) Western analysis for the indicated polypeptides (α-SMA, alpha smooth muscle actin; CTGF, connective tissue growth factor; and GAPDH, glyceraldehyde phosphate dehydrogenase) subsequent to TAT polypeptide transduction and 24 hour treatment in the absence (−) or presence (+) of TGFβ (5 ng/mL) or SB431542 (10 μM). (C) NHLF or IPF fibroblasts were treated as in (A), and qPCR was performed as described herein. Results represent mean±SEM from three independent experiments. *P<0.05, **P<0.005, *** P<0.001.\nNormal human lung fibroblasts (NHLF) or lung fibroblasts from idiopathic pulmonary fibrosis (IPF) patients were transduced with the indicated TAT polypeptide. TGFβ (5 ng/mL) or SB431542 (10 μM) was then added for an additional 24 hours. Images were obtained on a LSM510 confocal microscope following F-actin labeling with phalloidin-TRITC and DAPI nuclei staining. […]"}, "[2]": {"assay": "Liver enzymes and inflammatory cells in blood of saline or BLM mice", "format": "in vivo, C57BL/6 mice", "settings": "1 mg/kg daily from day 14; blood at days 0, 14, 28", "method": "(§1) FIG. 12. C57BL/6 mice received intratracheal instillation of saline or bleomycin (BLM). On day 14, all animals began daily treatment with either vehicle (methocel/saline) or 1 mg/kg of TAT-SH3-2. Blood samples were obtained at days 0, 14, and 28 from the facial vein of unanesthetized animals and assessed for effect on the indicated liver enzymes and inflammatory cells. Quantification of lymphocytes, monocytes, and neutrophils were measured using a VetScan HM5 Analyzer. Serum levels (U/L, units per liter; g/dL, grams per deciliter) of alkaline phosphatase (ALP), alanine aminotransferase (ALT), and albumin were determined using a Piccolo Xpress Chemistry analyzer. Data are presented as mean+/−SEM of n=5.\nas §1, with “C57BL/6” for “FIG. 12. C57BL/6”, “analyzer.” for “analyzer. Data are presented as mean+/−SEM of n=5.”"}}}
{"substance": "TAT-SH3-2: TAT-SNX9(SH3) fusion polypeptide having SNX9 amino acids 21-51 (31 mer) (TVNEGEIITITNPDVGGGWLEGRNIKGERGL; left off: small tags and cut ends)", "values": [{"measurement": "TGFβ-stimulated anchorage-independent growth in soft agar (AIG)", "setting": "AKR-2B cells", "value": "prevented"}, {"measurement": "profibrotic responses in human lung fibroblasts", "setting": "[1]", "value": "inhibited profibrotic responses"}, {"measurement": "inflammatory cell recruitment (lymphocytes, monocytes, neutrophils)", "setting": "[2]", "value": "no demonstrable effect"}, {"measurement": "murine liver enzymes (ALP, ALT, albumin)", "setting": "[2]", "value": "no demonstrable effect"}]}
